As a reminder, the IC50 is the concentration at which inhibition is half-maximal.

Each structure is given as a SMILES string. Where two headings read alike, the source gives them in different places.

Data set [1] deals with T1, recombinant human HDAC1 enzyme (Homo sapiens, UniProt Q13547).
T1 construct: purchased Enzo Life Sciences, Inc. USA
The experiment in a line: HDAC1 enzyme inhibition assay. The data set is classed as biochemical. The procedure:
The HDAC1 and 6 assays were carried out with few modifications from the previously described method. In brief, 10 µl of different concentration of test compounds was added to 40 µl of reaction mixture containing HDAC assay buffer, HDAC substrate, and recombinant human HDAC1 and 6 enzymes. The reactions were incubated for 30 min at 37°C. Then, 50 µl of trypsin stop solution was added in each well, and the plate was incubated at room temperature for an additional 20 min. Fluorescence intensity was measured at an excitation of 360 nm and an emission of 460 nm using a fluorescence microplate reader (FLx800, BioTek Instruments Inc. Winooski, VT, USA).

In a further data set the test system is p21^Waf1/Cip1. The experiment in a line: Western blotting, p21Waf1/Cip1 expression. The following applies: HCT116 cells, 24 h, compared to normal control. The data set is classed as cell-based, human. Here is the method:
(§1) After various treatments for 24 h, cells were lysed, and protein quantification of the lysates was estimated using the BCA™ kit (Thermo Fisher Scientific Inc., Waltham, MA, USA). Proteins samples (30 µg) were resolved on a 10% SDS-PAGE and transferred onto a PVDF membrane and blocked with 5% nonfat milk in TBST (tris-buffered saline with Tween-20) buffer for 1 h followed by washing in TBST buffer. The membrane was then probed with primary antibodies (GAPDH, HDAC8, p21^Waf1/Cip1, and acetyl-histone H3[Ac-Lys^9]) and incubated overnight at 4°C. The membrane was washed with TBST buffer and incubated with horseradish peroxidase-conjugated secondary antibody for 1 h at room temperature. Signal was captured using SuperSignal™ West Pico Plus chemiluminescent substrate (Thermo Fischer Scientific Inc., Waltham, MA, USA) on gel documentation system (G : BOX Chemi XRQ, Syngene).
(A western blot detects proteins with antibodies after separation by electrophoresis.)

The next data set relates to HCT116 cells. Description: Annexin V staining. It is filed as cell-based, human. The following applies: SAHA 5 µM, quercetin 100 µM, QMJ-2 100 µM, QMJ-5 50 µM, normal control 21.30%. Here is the method: Mechanism of cell death induced by synthesized analogues was determined using annexin V staining. In brief, as per annexin V flow cytometry kit protocol (#MCH100105), 1 × 10^6 cells were seeded in a cell culture dish and after overnight adherence, were incubated with test compounds. Cells were then detached by trypsinization, centrifuged, and washed with PBS. Cell suspension (100 µl) was mixed with Muse annexin V reagent (100 µl) and incubated for 20 min at room temperature. The stained cells were quantitatively analyzed for live, early, and late apoptosis using Muse cell analyzer (#0500-3115 Merck Millipore).

The test system of the next data set is HDAC8. The experiment in a line: Western blotting, HDAC8 expression. It is filed as cell-based, human. Particulars: HCT116 cells, 24 h, compared to normal control. Here is the method: as §1
A further data set has as its system acetyl histone H3K9. Description: Western blotting, acetyl histone H3K9 expression. The data set is classed as cell-based, human. Particulars: HCT116 cells, 24 h, compared to normal control. Here is the method: as §1, with “Syngene). The protein band densities were estimated using the software ImageJ (version 1.46r, NIH, Bethesda, MD, USA).” for “Syngene).”
Another data set relates to Wistar rats. The data set is classed as in vivo. Particulars: 2000 mg/kg p.o., limit test, 14 days observation. The procedure:
Animal care and handling were carried out according to the guidelines of the Committee for the Purpose of Control and Supervision of Experiments on Animals (CPCSEA), after seeking the approval of the research proposal by institutional animal ethics committee (IAEC) (IAEC/KMC/23/2015). Male Wistar rats inbred at the central animal research facility (CARF), Manipal academy of higher education (MAHE), was used in the present study. […] The animals were housed in sterile polypropylene cages containing sterile paddy husk and were provided with 12 h light and dark cycles.
The safe dose of the promising two analogues (QMJ-2 and QMJ-5) and quercetin were evaluated using Organization for Economic Cooperation and Development (OECD), 425 guidelines. Limit test was performed using 2000 mg/kg dose.

[2] abbreviates: mean ± SEM of three experiments, read-out: HDAC1 IC50.

T1 sequence (Q13547 whole entry): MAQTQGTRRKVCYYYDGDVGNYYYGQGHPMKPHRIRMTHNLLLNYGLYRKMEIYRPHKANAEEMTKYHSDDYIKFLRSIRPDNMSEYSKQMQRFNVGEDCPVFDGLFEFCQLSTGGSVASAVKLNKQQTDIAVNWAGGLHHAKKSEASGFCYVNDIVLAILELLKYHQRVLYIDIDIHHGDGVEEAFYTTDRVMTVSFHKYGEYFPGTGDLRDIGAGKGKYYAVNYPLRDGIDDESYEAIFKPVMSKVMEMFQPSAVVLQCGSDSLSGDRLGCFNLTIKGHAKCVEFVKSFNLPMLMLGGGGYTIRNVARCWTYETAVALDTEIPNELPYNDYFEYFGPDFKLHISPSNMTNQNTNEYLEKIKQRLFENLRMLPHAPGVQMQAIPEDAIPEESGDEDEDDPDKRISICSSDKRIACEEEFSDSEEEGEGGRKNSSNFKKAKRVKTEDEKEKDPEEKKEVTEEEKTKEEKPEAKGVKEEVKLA

For `Cc1ccc(-c2oc3ccccc3c(=O)c2O)cc1` [QMJ-2, 3-Hydroxy-2-(4-methylphenyl)-4H-1-benzopyran-4-one], the IC50 in data set [1] (setting [2]) was 34.1 ± 3.83 µM. The “expression of p21^Waf1/Cip1” value with p21^Waf1/Cip1 is “increased”. The “percentage of cells undergoing late apoptosis (Late Apop./Dead, annexin V)” value (from here on “percentage”) in the data set on HCT116 cells came out at 35.20%.

Turning to `Cc1ccc(-c2oc3cc(C)ccc3c(=O)c2O)cc1` [QMJ-5, 3-Hydroxy-7-methyl-2-(4-methylphenyl)-4H-1-benzopyran-4-one], the IC50 in data set [1] (setting [2]) worked out at 47.7 ± 6.3 µM. Further, the HDAC8 expression entry in the data set with HDAC8 is listed as “significant reduction”. Moreover, the “expression of acetylated histone H3K9” value in the data set on acetyl histone H3K9 is “significant increase”. For the same compound, the “expression of p21^Waf1/Cip1” value with p21^Waf1/Cip1 is given as “increased”. In addition, the “percentage” value with HCT116 cells was determined as 38.65%.

For `O=c1c(O)c(-c2ccc(O)c(O)c2)oc2cc(O)cc(O)c12` [Quercetin, quercetin, reference compound], the IC50 in data set [1] (HDAC1 IC50, mean ± SEM of three experiments) was 26.7 ± 3.77 µM. Further, the HDAC8 expression entry with HDAC8 was “significant reduction”. In the data set with Wistar rats, the “acute toxicity, tolerability” value is “safe and well tolerated”; the mortality result is “no mortality”. Further, in the data set on HCT116 cells, the “percentage” value worked out at 35.80%.

For the origin of these results see paper PMC6327263, “Evaluation of Novel 3-Hydroxyflavone Analogues as HDAC Inhibitors against Colorectal Cancer” (Advances in Pharmacological Sciences, 2018).
